This passage reports TGI results from PubChem BioAssay (NCI).

Holding throughout (assay): NCI anticancer screen, dose series, 48 h
The test system of assay [1] is 786-0 renal.
For assay [2], the system named is LOX IMVI melanoma.
Assay [3] has as its system MCF7 breast.
Assay [4] has as its system MDA-MB-435.
Assay [5] concerns MDA-N.
Assay [6] has as its system MOLT-4 leukemia.
In assay [7] the test system is NCI-H226 lung.
Assay [8] deals with NCI-H460 lung.
In assay [9] the test system is RPMI-8226 leukemia.
Assay [10] has as its system U251 CNS.
Assay [11] relates to UACC-257 melanoma.

SMILES strings stand for the structures.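 These data come from cells grown in 96-well plates and exposed to compound for 48 hours at five concentrations. The concentration for full growth arrest is given as TGI.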

For the compound `CC(=O)O[C@H]1CCC2[C@@H]3CCC4NC(=O)C(C#N)C[C@]4(C)C3CC[C@@]21C` (stereo partly drawn), the TGI in assay [1], in [2], in assay [3], in [4], in assay [5] and in [6] was above 10 µM in each case. The TGI in assay [7], in [8], in assay [9], in assay [10] and in assay [11] was above 10 µM each time.
On to `Nn1c(Sc2nc3ccccc3c(=O)n2N)nc2ccccc2c1=O`, for which the TGI is 18.6 µM in [1]; 4.25 µM in assay [2]; 27.4 µM in [3]; above 49.5 µM in assay [4]; 15.5 µM in [5]; 3.69 µM in [6]. Moreover, the TGI stood at 5.5 µM in [7]; 51.7 µM in assay [8]; 11.5 µM in assay [9]; 20 µM in assay [10]; 38.1 µM in assay [11].
With `CC1CN=C(c2ccc(CN3CCC(C4CCN(Cc5ccc(C6=NCC(C)N6)cc5)CC4)CC3)cc2)N1` (stereo not drawn), the TGI in assay [1] was 34.1 µM; in assay [2] it was 56 µM; in assay [3], 37.4 µM; in assay [4], 51.6 µM; in assay [5], 47.3 µM; in [6] it was 46.5 µM. Also, the TGI in assay [8] was determined as 37.3 µM; in assay [9], 46.2 µM; in [10] it was 29.6 µM; in assay [11], 52.4 µM.
`CC(C)(CN1CCCCC1)C(/C=C/c1ccccc1)=N\NC(=O)N/N=C(/C=C/c1ccccc1)C(C)(C)CN1CCCCC1`: the TGI came out at 2.78 µM in [1]; 3.32 µM in assay [2]; 3.53 µM in assay [3]; 2.86 µM in [4]; 3.01 µM in [5]; 4.02 µM in assay [6]. Moreover, the TGI was determined as 5.27 µM in assay [7]; 2.67 µM in assay [8]; 3.96 µM in assay [9]; 3 µM in [10]; 3.1 µM in assay [11].
On to `COC(=O)/C=c1/c2ccccc2n2c1c1ccccc1[n+]2C`, for which the TGI in assay [1] was 14.9 µM; in assay [2], 27.9 µM; in assay [3], 26.5 µM; in assay [4], 18.8 µM; in [5], 11.1 µM; in [6], above 100 µM. The TGI in [7] was 21 µM; in assay [8], 12.5 µM; in [9] it was 9.67 µM; in assay [10], 19.4 µM; in assay [11], 8.08 µM.
Turning to `CCN1CCCn2c(=O)[nH]c3cc(Br)cc1c32`, the TGI in assay [1], in [2], in [3], in [4], in assay [5] and in assay [6] was above 100 µM in each case. Besides, the TGI in [7], in assay [8], in assay [9], in [10] and in assay [11] was above 100 µM each time.
Regarding `C[C@]12CC[C@H]3[C@@H](CCC4=C(Br)C(=O)C=C[C@@]43O)[C@@H]1CCC2=O`, the TGI in [1] was 81.2 µM; in [2], above 100 µM; in assay [3], above 100 µM; in [4], above 100 µM; in assay [5], above 100 µM; in [6], above 100 µM. Also, the TGI in assay [7] was above 100 µM; in assay [8], 63.4 µM; in [9], above 100 µM; in [10], above 100 µM; in [11], 63.8 µM.
Regarding `Clc1nc2c(C#Cc3ccccc3)ncnc2n1C1CCCCO1` (stereo not drawn), the TGI in assay [1] is 25.3 µM; in assay [2], 30.7 µM; in assay [3], 20.9 µM; in assay [4], 94.1 µM; in assay [5] it was 25.2 µM; in assay [6], 51.2 µM. In addition, the TGI in assay [7] was above 100 µM; in [8], 39.6 µM; in [9], 35.8 µM; in assay [10] it was 26.2 µM; in assay [11] it was 41.1 µM.
Consider `CC(=O)NC(=O)NC1=NCCC(=O)N1CCc1c[nH]c2ccccc12`, for which the TGI in assay [1], in assay [2], in assay [3], in assay [4], in [5] and in assay [6] was above 100 µM throughout. Also, the TGI in assay [7], in assay [8], in assay [9], in assay [10] and in [11] was above 100 µM each time.
As to `Cc1c(C#N)c(=N)oc2ccccc12`, the TGI in assay [1], in assay [2], in assay [3], in assay [4], in assay [5] and in assay [6] was above 100 µM in each case. Further, the TGI in [7], in [8], in [9], in [10] and in assay [11] was above 100 µM in each case.
Turning to `O=c1oc2cccnc2n1CCCCN1CCN(c2ccccc2)CC1`, the TGI in assay [1], in [2], in [3], in [4], in [5] and in [6] was above 100 µM throughout. Moreover, the TGI in assay [8], in assay [9], in assay [10] and in [11] was above 100 µM each time.
As for `O=[N+]([O-])c1ccc2c(c1)n1c(N3CCCC3)[n+]3ccccc3c1c1c3cccc[n+]3c(N3CCCC3)n21`, the TGI in [1], in [2], in assay [3], in assay [4], in [5] and in assay [6] was above 100 µM throughout. The TGI in assay [7], in assay [8], in assay [9], in assay [10] and in assay [11] was above 100 µM each time.
`Nc1ccc2c(c1)NC(=O)[C@@H]1CCCN1C2=O`: the TGI in assay [1], in assay [2], in assay [3], in assay [4], in assay [5] and in assay [6] was above 100 µM in each case. Also, the TGI in [7], in assay [8], in assay [9], in [10] and in assay [11] was above 100 µM each time.
On to `COc1cc2oc(=O)cc(C)c2c(OC)c1OC(C)=O`, for which the TGI in [1], in assay [2], in assay [3], in assay [4], in [5] and in [6] was above 100 µM each time. Further, the TGI in [7], in [9], in assay [10] and in [11] was above 100 µM in each case.
For the compound `CC1CN=C(c2ccc(-c3nc(-c4ccc(C5=NCC(C)N5)cc4)nc(N(C)C)n3)cc2)N1` (stereo not drawn), the TGI in assay [1] is 4.49 µM; in [2] it was 2.93 µM; in assay [3], 4.71 µM; in assay [4] it was 3.09 µM; in assay [5], 4.03 µM; in [6], 3.79 µM. Besides, the TGI in assay [7] stood at 5.35 µM; in [8], 11.1 µM; in [9], 17.9 µM; in [10] it was 2.35 µM; in assay [11] it was 8.76 µM.
For `CC(C)(Cc1ccccc1)N1C(=O)N1C(C)(C)Cc1ccccc1`, the TGI was 56.4 µM in [1]; 33.6 µM in assay [2]; above 100 µM in [3]; above 100 µM in [4]; above 100 µM in assay [5]; 55.6 µM in [6]. The TGI in assay [7] is 46 µM; in [8], above 100 µM; in assay [9], 38.5 µM; in assay [10] it was above 100 µM; in assay [11], above 100 µM.
`Cc1cn(CCOCCOC(=O)NC(CCCNC(N)=O)C(=O)O)c(=O)[nH]c1=O` (stereo not drawn): the TGI in [1], in assay [2], in [3], in assay [4], in assay [5] and in [6] was above 100 µM in each case. For the same compound, the TGI in assay [7], in assay [8], in [9], in assay [10] and in assay [11] was above 100 µM each time.
Take `O=C(NCCCCCCO)c1cccc2cc3ccccc3nc12`: the TGI in assay [1] turned out to be 36.2 µM; in assay [2], 34.7 µM; in assay [3] it was 39.3 µM; in assay [4] it was 47.3 µM; in assay [5], 12.9 µM; in [6] it was 58.5 µM. Also, the TGI in [7] was 35.3 µM; in assay [8], 39 µM; in [9], 47.3 µM; in assay [10], above 100 µM; in assay [11], 33.9 µM.
As to `COC(=O)[C@](C)(Cc1ccccc1)NC(=O)[C@@H](C)N1[C@@H](c2ccccc2)COC1(C)C`, the TGI in [1], in [2], in assay [3], in [4], in assay [5] and in [6] was above 100 µM in each case. For the same compound, the TGI in assay [7], in assay [8], in assay [9], in assay [10] and in assay [11] was above 100 µM throughout.
As to `C=CC(OC(C)=O)c1ccc(OC(C)=O)cc1` (stereo not drawn), the TGI in [1] was 2.99 µM; in assay [2], 9 µM; in assay [3] it was 26.5 µM; in assay [4] it was 11.9 µM; in [5], 10.9 µM; in assay [6] it was above 44 µM. For the same compound, the TGI in assay [7] turned out to be 32.1 µM; in assay [8], 37.1 µM; in [9], 5.92 µM; in assay [10] it was 5.65 µM; in [11] it was 16 µM.
For `COc1cc2c(cc1OC)C(=O)/C(=C/c1ccc(O)cc1)CC2`, the TGI in assay [1], in assay [2], in assay [3], in assay [4], in assay [5] and in [6] was above 10 µM throughout. Further, the TGI in assay [7], in [8], in [9], in assay [10] and in assay [11] was above 10 µM in each case.
`O=C1c2ccccc2C(=O)c2nn(N=P(CP(=Nn3nc4c(n3)C(=O)c3ccccc3C4=O)(c3ccccc3)c3ccccc3)(c3ccccc3)c3ccccc3)nc21`: the TGI in assay [1], in [2], in assay [3], in assay [4], in assay [5] and in [6] was above 100 µM throughout. For the same compound, the TGI in assay [8], in assay [9], in assay [10] and in assay [11] was above 100 µM each time.
With `COc1ccc(OC)c(C[P+](c2ccccc2)(c2ccccc2)c2ccccc2)c1`, the TGI in assay [1] is above 100 µM; in assay [2], 13.2 µM; in [3] it was above 40.7 µM; in assay [4], 13.7 µM; in assay [5], 29.8 µM; in [6], above 35.3 µM. Moreover, the TGI was above 61.4 µM in assay [7], above 100 µM in [8], 6.39 µM in assay [9] and 14.4 µM in [11].
`COc1ccccc1NC(=S)N/N=C/c1ccccn1`: the TGI in assay [1] was 13 µM; in [2] it was 6.8 µM; in [3] it was above 100 µM; in [4] it was above 46.4 µM; in [5], above 46.4 µM; in assay [7], above 35.9 µM. In addition, the TGI in assay [8] was 6.12 µM; in [9] it was above 22.6 µM; in assay [10] it was 12.5 µM; in assay [11] it was 0.416 µM.
For `O=C(O)CCSC1=NCCN1`, the TGI in assay [1], in [2], in assay [3], in assay [4], in assay [5] and in assay [7] was above 100 µM in each case. Besides, the TGI in assay [8], in [9], in assay [10] and in assay [11] was above 100 µM each time.
